Source: ChEMBL document CHEMBL1201862, “PubChem BioAssay data set” (2004)
Values joined by “and” are separate entries in the source; they are usually repeats but may differ in a detail not shown here. Identical values can stand only once.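 Cells were grown in 96-well plates and exposed to each compound for 48 hours at five concentrations; endpoints were interpolated linearly between bracketing concentrations, or set to the highest concentration if not reached. At the GI50, growth is halved.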 Active and inactive are the calls of the source. No stated cut-off is given here; in the data, active = GI50 up to about 1.1 µM and inactive = higher.

Tests used:
Assay in all cases: DTP human tumour cell line panel, 48 h
M14 = test system: M14
NCI-H460 = test system: NCI-H460
HCT-15 = test system: HCT-15
NCI-H23 = test system: NCI-H23
OVCAR-3 = test system: OVCAR-3
U-251 = test system: U-251
CCRF-CEM = test system: CCRF-CEM
SNB-19 = test system: SNB-19
NCI-H522 = test system: NCI-H522
786-0 = test system: 786-0
HOP-62 = test system: HOP-62
T47D = test system: T47D
MDA-MB-435 = test system: MDA-MB-435
HCC 2998 = test system: HCC 2998
A549 = test system: A549
MDA-MB-231 = test system: MDA-MB-231
BT-549 = test system: BT-549
SK-MEL-2 = test system: SK-MEL-2
SNB-75 = test system: SNB-75
UO-31 = test system: UO-31
SK-OV-3 = test system: SK-OV-3
EKVX = test system: EKVX
MDA-N = test system: MDA-N
TK-10 = test system: TK-10
MOLT-4 = test system: MOLT-4
MCF7 = test system: MCF7
K562 = test system: K562
A498 = test system: A498
UACC-62 = test system: UACC-62
ACHN = test system: ACHN
HOP-92 = test system: HOP-92
RPMI-8226 = test system: RPMI-8226
KM12 = test system: KM12
OVCAR-5 = test system: OVCAR-5
HT-29 = test system: HT-29
CAKI-1 = test system: CAKI-1
UACC-257 = test system: UACC-257
OVCAR-4 = test system: OVCAR-4
SK-MEL-5 = test system: SK-MEL-5
SK-MEL-28 = test system: SK-MEL-28
COLO 205 = test system: COLO 205
SF-295 = test system: SF-295
DU-145 = test system: DU-145
NCI/ADR-RES = test system: NCI/ADR-RES
Malme-3M = test system: Malme-3M
PC-3 = test system: PC-3
SN12C = test system: SN12C
SF-268 = test system: SF-268
HCT-116 = test system: HCT-116
SW-620 = test system: SW-620
Hs-578T = test system: Hs-578T
LOX IMVI = test system: LOX IMVI
OVCAR-8 = test system: OVCAR-8
SF-539 = test system: SF-539
RXF 393 = test system: RXF 393
NCI-H226 = test system: NCI-H226
SR = test system: SR
IGROV-1 = test system: IGROV-1

COC(=O)C1=C(CCCCO[Si](C)(C)C(C)(C)C)NC(=O)N2[C@@H](CCOCc3ccccc3)CC[C@H]12
GI50 (M14): 25.8 µM (inactive) | GI50 (NCI-H460): 25.9 µM (inactive) | GI50 (HCT-15): 17.8 µM | GI50 (NCI-H23): 7.98 µM (inactive) | GI50 (OVCAR-3): 13.4 µM (inactive) | GI50 (U-251): 14.4 µM (inactive) | GI50 (CCRF-CEM): 17.9 µM (inactive) | GI50 (SNB-19): 23.6 µM (inactive) | GI50 (NCI-H522): 11.1 µM (inactive) | GI50 (786-0): 15.9 µM (inactive) | GI50 (HOP-62): 24.2 µM (inactive) | GI50 (T47D): 15.8 µM (inactive) | GI50 (MDA-MB-435): 24 µM (inactive) | GI50 (HCC 2998): 24.4 µM (inactive) | GI50 (A549): 14.8 µM (inactive) | GI50 (MDA-MB-231): 18.2 µM (inactive) | GI50 (BT-549): 20.5 µM (inactive) | GI50 (SK-MEL-2): 16.2 µM (inactive) | GI50 (SNB-75): 25.2 µM (inactive) | GI50 (UO-31): 19.5 µM (inactive) | GI50 (SK-OV-3): 45.3 µM (inactive) | GI50 (EKVX): 15.8 µM (inactive) | GI50 (MDA-N): 17.6 µM (inactive) | GI50 (TK-10): 40.3 µM (inactive) | GI50 (MOLT-4): 18.4 µM (inactive) | GI50 (MCF7): 27 µM (inactive) | GI50 (K562): 25.1 µM (inactive) | GI50 (A498): 53 µM (inactive) | GI50 (UACC-62): 24.3 µM (inactive) | GI50 (ACHN): 29.1 µM (inactive) | GI50 (HOP-92): 15.5 µM (inactive) | GI50 (RPMI-8226): 23.4 µM (inactive) | GI50 (KM12): 18.3 µM (inactive) | GI50 (OVCAR-5): 33.1 µM (inactive) | GI50 (HT-29): 12.3 µM (inactive) | GI50 (CAKI-1): 16.8 µM (inactive) | GI50 (UACC-257): 21.1 µM (inactive) | GI50 (OVCAR-4): 27.5 µM (inactive) | GI50 (SK-MEL-5): 10.3 µM (inactive) | GI50 (SK-MEL-28): 30.5 µM (inactive) | GI50 (COLO 205): 18 µM (inactive) | GI50 (SF-295): 26 µM (inactive) | GI50 (DU-145): 12.8 µM (inactive) | GI50 (NCI/ADR-RES): 15.3 µM (inactive) | GI50 (Malme-3M): 19.4 µM (inactive) | GI50 (PC-3): 21.1 µM (inactive) | GI50 (SN12C): 16.7 µM (inactive) | GI50 (SF-268): 25.8 µM (inactive) | GI50 (HCT-116): 10.9 µM (inactive)

COc1ccc(-c2c(C#N)c(N)n(C3OC(COC(C)=O)C(OC(C)=O)C(OC(C)=O)C3OC(C)=O)c(=S)c2C#N)cc1 (centres undefined)
GI50 (NCI-H460): 47 µM (inactive) and 61.4 µM (inactive) | GI50 (HCT-15): 50.2 µM | GI50 (NCI-H23): 44 µM (inactive) and 58.6 µM (inactive) | GI50 (U-251): 46.5 µM (inactive) and 31.7 µM (inactive) | GI50 (SNB-19): 40 µM (inactive) and 55.8 µM (inactive) | GI50 (NCI-H522): 23.3 µM (inactive) and 25.6 µM (inactive) | GI50 (786-0): 27.7 µM (inactive) and 28.6 µM (inactive) | GI50 (SW-620): > 100 µM (inactive) | GI50 (HOP-62): 28.6 µM (inactive) and 19.8 µM (inactive) | GI50 (Hs-578T): 36.6 µM (inactive) and 27.4 µM (inactive) | GI50 (LOX IMVI): 34.3 µM (inactive) and 32.9 µM (inactive) | GI50 (T47D): 18.6 µM (inactive) and 28.3 µM (inactive) | GI50 (HCC 2998): 30.3 µM (inactive) and 18.2 µM (inactive) | GI50 (MDA-MB-231): 27.9 µM (inactive) and 29.9 µM (inactive) | GI50 (BT-549): 26.1 µM (inactive) and 26.7 µM (inactive) | GI50 (SK-MEL-2): 22.8 µM (inactive) and 24.2 µM (inactive) | GI50 (SNB-75): 17.5 µM (inactive) and 15.6 µM (inactive) | GI50 (SK-OV-3): 29.4 µM (inactive) and 26.2 µM (inactive) | GI50 (EKVX): 26.5 µM (inactive) and 30 µM (inactive) | GI50 (OVCAR-8): 34.2 µM (inactive) and 21.3 µM (inactive) | GI50 (MCF7): 29 µM (inactive) and 22.2 µM (inactive) | GI50 (SF-539): 22.9 µM (inactive) and 40.1 µM (inactive) | GI50 (A498): 33.7 µM (inactive) and 28.6 µM (inactive) | GI50 (UACC-62): 20.8 µM (inactive) and 20 µM (inactive) | GI50 (RXF 393): 29.5 µM (inactive) and 24.5 µM (inactive) | GI50 (ACHN): 50.8 µM (inactive) and 33.6 µM (inactive) | GI50 (HOP-92): 17.1 µM (inactive) and 19.2 µM (inactive) | GI50 (RPMI-8226): 26.1 µM (inactive) and 30.8 µM (inactive) | GI50 (CAKI-1): 34.6 µM (inactive) and 53.1 µM (inactive) | GI50 (UACC-257): 43.1 µM (inactive) and 23.7 µM (inactive) | GI50 (NCI-H226): 50.1 µM (inactive) and 91 µM (inactive) | GI50 (OVCAR-4): 24.4 µM (inactive) and 23.4 µM (inactive) | GI50 (SK-MEL-5): 23.4 µM (inactive) and 21.7 µM (inactive) | GI50 (SF-295): 40.5 µM (inactive) and 35.7 µM (inactive) | GI50 (NCI/ADR-RES): > 100 µM (inactive) and 75.2 µM (inactive) | GI50 (Malme-3M): 43.9 µM (inactive) and 23.9 µM (inactive) | GI50 (PC-3): 35.8 µM (inactive) and 37.8 µM (inactive) | GI50 (SN12C): 76.4 µM (inactive) and 43.3 µM (inactive) | GI50 (SF-268): 21.4 µM (inactive) and 25.5 µM (inactive) | GI50 (HCT-116): 55.5 µM (inactive) and 39.4 µM (inactive)

C=C(C)[C@@H]1C[C@H]2O[C@](O)(C(=C)CC(=O)/C=C(/C)C[C@@H]3OC(=O)[C@]24O[C@@H]34)[C@H]1O
GI50 (M14): > 100 µM (inactive) | GI50 (NCI-H460): > 100 µM (inactive) | GI50 (HCT-15): > 100 µM | GI50 (NCI-H23): > 100 µM (inactive) | GI50 (U-251): > 100 µM (inactive) | GI50 (CCRF-CEM): > 100 µM (inactive) | GI50 (SNB-19): > 100 µM (inactive) | GI50 (NCI-H522): > 100 µM (inactive) | GI50 (786-0): > 100 µM (inactive) | GI50 (SR): > 100 µM (inactive) | GI50 (SW-620): > 100 µM (inactive) | GI50 (HOP-62): > 100 µM (inactive) | GI50 (LOX IMVI): > 100 µM (inactive) | GI50 (T47D): > 100 µM (inactive) | GI50 (MDA-MB-435): > 100 µM (inactive) | GI50 (HCC 2998): > 100 µM (inactive) | GI50 (A549): > 100 µM (inactive) | GI50 (MDA-MB-231): > 100 µM (inactive) | GI50 (BT-549): > 100 µM (inactive) | GI50 (SK-MEL-2): > 100 µM (inactive) | GI50 (SNB-75): > 100 µM (inactive) | GI50 (UO-31): > 100 µM (inactive) | GI50 (SK-OV-3): > 100 µM (inactive) | GI50 (EKVX): > 100 µM (inactive) | GI50 (MDA-N): > 100 µM (inactive) | GI50 (TK-10): > 100 µM (inactive) | GI50 (OVCAR-8): > 100 µM (inactive) | GI50 (MOLT-4): > 100 µM (inactive) | GI50 (MCF7): > 100 µM (inactive) | GI50 (SF-539): > 100 µM (inactive) | GI50 (K562): > 100 µM (inactive) | GI50 (A498): > 100 µM (inactive) | GI50 (UACC-62): > 100 µM (inactive) | GI50 (RXF 393): > 100 µM (inactive) | GI50 (ACHN): > 100 µM (inactive) | GI50 (RPMI-8226): > 100 µM (inactive) | GI50 (KM12): > 100 µM (inactive) | GI50 (OVCAR-5): > 100 µM (inactive) | GI50 (HT-29): > 100 µM (inactive) | GI50 (CAKI-1): > 100 µM (inactive) | GI50 (UACC-257): > 100 µM (inactive) | GI50 (NCI-H226): > 100 µM (inactive) | GI50 (OVCAR-4): > 100 µM (inactive) | GI50 (SK-MEL-5): > 100 µM (inactive) | GI50 (SK-MEL-28): > 100 µM (inactive) | GI50 (COLO 205): > 100 µM (inactive) | GI50 (SF-295): > 100 µM (inactive) | GI50 (DU-145): > 100 µM (inactive) | GI50 (NCI/ADR-RES): > 100 µM (inactive) | GI50 (Malme-3M): > 100 µM (inactive) | GI50 (PC-3): > 100 µM (inactive) | GI50 (SN12C): > 100 µM (inactive) | GI50 (SF-268): > 100 µM (inactive) | GI50 (HCT-116): > 100 µM (inactive) | GI50 (IGROV-1): > 100 µM (inactive)
